Test results: patent US20140088187A1, “ANDROGEN RECEPTOR INHIBITORS AND METHODS OF USE THEREOF” (BETH ISRAEL DEACONESS MEDICAL CENTER, priority 2010, published 2014)

Tests used:
AR = biological target: T1, AR (Mus musculus, UniProt P19091); assay: Dose ranging experiment in intact adult male mice (seminal vesicles, prostate epithelium); type: in vivo
T1 construct: we first treated adult male mice with compound A89 in a dose ranging experiment; from tissue; host or cells: seminal vesicles and prostate epithelium of intact adult male mice
T1 sequence (P19091 1-899): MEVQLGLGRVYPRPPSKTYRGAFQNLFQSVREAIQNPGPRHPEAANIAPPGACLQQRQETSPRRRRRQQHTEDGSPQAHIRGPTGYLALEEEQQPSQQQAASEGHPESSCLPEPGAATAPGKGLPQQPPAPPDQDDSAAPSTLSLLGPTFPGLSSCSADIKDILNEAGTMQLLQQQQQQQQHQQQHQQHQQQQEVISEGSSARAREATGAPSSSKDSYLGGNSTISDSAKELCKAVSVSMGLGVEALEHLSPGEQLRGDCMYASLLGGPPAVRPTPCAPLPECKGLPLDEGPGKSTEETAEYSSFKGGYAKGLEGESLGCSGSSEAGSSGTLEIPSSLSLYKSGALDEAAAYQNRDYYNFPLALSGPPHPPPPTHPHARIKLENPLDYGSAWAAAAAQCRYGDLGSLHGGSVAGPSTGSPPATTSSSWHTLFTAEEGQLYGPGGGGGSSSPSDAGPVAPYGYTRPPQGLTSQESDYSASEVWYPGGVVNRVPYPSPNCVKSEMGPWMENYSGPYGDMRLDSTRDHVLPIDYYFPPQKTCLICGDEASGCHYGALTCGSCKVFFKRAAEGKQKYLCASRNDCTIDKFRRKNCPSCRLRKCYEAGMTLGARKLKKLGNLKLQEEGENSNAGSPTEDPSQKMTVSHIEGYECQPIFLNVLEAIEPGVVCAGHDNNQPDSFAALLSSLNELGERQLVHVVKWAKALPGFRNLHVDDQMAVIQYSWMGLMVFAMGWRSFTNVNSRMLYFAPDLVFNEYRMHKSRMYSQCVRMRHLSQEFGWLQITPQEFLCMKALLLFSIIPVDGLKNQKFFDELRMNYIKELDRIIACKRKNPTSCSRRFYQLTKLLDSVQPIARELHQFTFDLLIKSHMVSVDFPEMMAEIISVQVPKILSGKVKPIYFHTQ
Protocol: FIG. 17. Compound A89 maintains activity in vivo and is efficacious in a CRPC xenograft model. (a) Morphological changes in seminal vesicles of intact adult male mice following treatment with DMSO vehicle, Bic (0.5 mg/day) or A89 (mg/day as indicated) for 7 days. (b) H&E stained cross-sections of prostate ductal epithelium from above mice treated with DMSO, Bic, or A89 (10 mg/day). (c) AR and Ki-67 staining in pre- and post-castration relapsed VCaP xenograft tumor sections following treatment with A89 (5 mg/day) or Bic (0.5 mg/day) for 7 days. (d) mRNA levels of AR and AR-target genes in post-castration relapsed VCaP xenograft tumors following treatment with A89 (5 mg/day) for 7 days. Error bars represent S.E.M.
To evaluate the activity of the chemotype A compounds in vivo we first treated adult male mice with compound A89 in a dose ranging experiment from 0.5 mg/day to 10 mg/day via intraperitoneal injection for 7 days. […] We next evaluated A89 in VCaP xenograft tumors that had relapsed following an initial response to castration, which is a model of CRPC.

AR WT = biological target: T2, AR WT (Homo sapiens, UniProt P10275); assay: AR expression levels in transiently transfected COS7 cells, AR WT; type: cell-based; conditions: 24 hours
T2 construct: The AR WT construct expresses full-length human AR under cmv promoter control; expressed in transfected cells; host or cells: COS7
T2 sequence (P10275 1-920): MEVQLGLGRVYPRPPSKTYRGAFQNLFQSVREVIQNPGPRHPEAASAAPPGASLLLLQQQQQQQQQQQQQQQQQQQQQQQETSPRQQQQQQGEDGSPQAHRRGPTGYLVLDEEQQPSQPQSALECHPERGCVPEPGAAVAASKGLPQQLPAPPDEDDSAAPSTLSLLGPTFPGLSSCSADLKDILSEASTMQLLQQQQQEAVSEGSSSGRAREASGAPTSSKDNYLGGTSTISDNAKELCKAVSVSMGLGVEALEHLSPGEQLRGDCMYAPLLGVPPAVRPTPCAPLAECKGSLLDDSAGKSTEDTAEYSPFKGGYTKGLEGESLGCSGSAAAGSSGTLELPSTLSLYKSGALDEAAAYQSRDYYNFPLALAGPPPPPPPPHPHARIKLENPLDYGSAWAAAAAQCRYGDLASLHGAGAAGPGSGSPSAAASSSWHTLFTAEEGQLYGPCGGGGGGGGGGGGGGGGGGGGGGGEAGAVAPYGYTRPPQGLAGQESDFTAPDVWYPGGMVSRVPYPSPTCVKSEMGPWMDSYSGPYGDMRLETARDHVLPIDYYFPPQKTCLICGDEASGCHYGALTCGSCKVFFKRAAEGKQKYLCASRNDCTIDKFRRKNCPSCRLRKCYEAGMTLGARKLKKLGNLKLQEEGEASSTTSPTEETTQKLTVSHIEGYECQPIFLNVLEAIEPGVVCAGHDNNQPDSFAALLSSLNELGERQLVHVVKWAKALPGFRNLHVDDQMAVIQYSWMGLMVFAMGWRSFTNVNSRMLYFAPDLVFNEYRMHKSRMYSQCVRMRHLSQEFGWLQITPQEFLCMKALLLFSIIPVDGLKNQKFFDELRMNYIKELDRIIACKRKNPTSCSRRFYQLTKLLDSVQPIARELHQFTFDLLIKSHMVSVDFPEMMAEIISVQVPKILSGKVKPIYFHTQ

[1] = biological target: T3, endogenous wildtype AR in VCaP cells (Homo sapiens, UniProt P10275); assay: AR protein degradation with CHX in VCaP cells; type: cell-based; conditions: CHX 100 nM, A89 50 μM
T3 construct: endogenous in cells; host or cells: VCaP
T3 sequence (P10275 1-920): T2 sequence (P10275 1-920)
Protocol: As LNCaP and C4-2 cells express the T877A mutant AR, we next examined PC3-AR cells expressing wildtype AR. As observed in C4-2 cells, A89 caused a decrease in AR protein levels (FIG. 10d). To further validate that this was due to increased AR protein degradation, we pretreated these cells with A89 for 2 hours and then blocked new protein synthesis with cycloheximide (CHX). […] We finally examined VCaP cells.

general health of mice (AR; 0.5 mg/day to 10 mg/day intraperitoneal injection for 7 days): outwardly healthy | androgen sensitive prostate epithelium (AR; adult male mice, 7 days (10 mg/day in FIG. 17b)): atrophy | seminal vesicles dose-dependent involution, beginning at dose (AR; adult male mice, intraperitoneal injection for 7 days): ≥ 2.5 mg/day | AR WT protein levels (AR WT): decreased in a dose dependent manner | degradation of endogenous wildtype AR [1]: increased degradation
SMILES: CCOc1cc(F)c(S(=O)(=O)NCc2ccc3c(c2)OCO3)cc1F [Compound A89, N-(1,3-benzodioxol-5-ylmethyl)-4-ethoxy-2,5-difluorobenzenesulfonamide]
